Counter-ions that a name gives are not always drawn.
Assay: Solubility of the dye in pure water
Assay type: physicochemical
Conditions: pure water (ion exchanged water), 25° C.

Structure (SMILES): CC(C)(C)CC(C)(C)c1ccc(Oc2cc(Nc3ccc(S(=O)(=O)O)cc3)c3c4c(c(C(=O)c5ccccc5)c(=O)[nH]c24)-c2ccccc2C3=O)c(S(=O)(=O)O)c1 [Example M1, sodium salt of anthrapyridone disulfonic acid of Formula (1)]
- solubility: 100 mg/mL
